Test results reported in patent US7160992B2, “Amino-modified polysaccharides and methods of generating and using same” (Yeda Research and Development Co., Ltd., priority 2003, dated 2007).
Several values for one entry are separate records, joined by “and”; a condition that tells them apart may be missing. Identical values can stand only once.

Legend:
RRE IIB RNA = experiment: Fluorescence anisotropy: RhdRev binding and AAC competition for RRE IIB RNA; set-up: species or system HIV-1; settings: for Kd: competition of AACs with RhdRev (10 nM) for RRE IIB RNA (20 nM) binding, 85 mM NaCl; for IC50: competition of AACs with RhdRev for RRE IIB RNA binding
TAR RNA = experiment: Fluorescence anisotropy: RhdRev binding and AAC competition for TAR RNA; set-up: species or system HIV-1; settings: for Kd: competition of AACs with RhdRev (10 nM) for TAR RNA (20 nM) binding, 85 mM NaCl; for IC50: competition of AACs with RhdRev for TAR RNA binding; for competition with RhdRev for TAR RNA binding (in words): up to 20 μM of AAC
CXCR4 = biological target: T1, CXCR4 (Homo sapiens, UniProt P61073); experiment: Inhibition of anti-CXCR4 mAb 12G5 binding to cells, flow cytometry; format: cell-based; settings: for reduction of 12G5 mAb binding to the cells: 10 μM AAC, PM1 cells, 30 min at 4° C.; for inhibition of mAb 12G5 or SDF-1α binding to CXCR4, % of the NeoR6 activity: in comparison to NeoR6; for inhibition of 12G5 mAb binding to CXCR4 (in words): 20 μM aminoglycoside antibiotic
T1 construct: endogenous in cells; host or cells: PM1 cells and PBMC
Method: FIGS. 11a–d are graphs depicting the binding of AACs to CXCR4 in the presence of anti CXCR4 antibody (12G5). PM1 cells were incubated with PE-conjugated isotype control mAb, PE-anti CXCR4 conjugated mAb (12G5) alone, or in the presence of the indicated AACs for 30 min at 4° C. The cells were then washed twice with PBS and analyzed by flow cytometry. The MFI values are shown in parenthesis.
Interaction of AACs with CXCR4 was determined by flow cytometry (FACScan, Becton Dickinson) as described recently (Litovchick et al., 2001, supra). Briefly, 0.5×10^6 cells were washed in ice-cold PBS containing 0.1% sodium azide (wash buffer) and incubated at 4° C. with anti-CXCR4 mAb, 12G5 (PharMingen, San Diego, Calif.) conjugated to phycoerithrine (PE), in the absence or presence of different concentrations of the AACs. After 30 min of incubation, the cells were washed with ice-cold wash buffer and fixed in PBS containing 1% paraformaldehyde. Non-specific fluorescence was assessed by using isotype-matched control. For each sample 10,000 events were acquired. Data were analyzed and processed using CellQuest™ software (Becton Dickinson).

MT-2 cells = experiment: Cellular uptake competition of AACs with NeoR6-FITC, flow cytometry; format: cell-based; settings: for competition with NeoR6-FITC uptake (in words): 100 fold excess of non-labeled AAC; for inhibition of NeoR6-FITC uptake, less affinity than NeoR6: 100 fold excess of non-labeled AAC over 0.5 μM NeoR6-FITC
Method: Following 15 minutes of incubation at room temperature, the cells were washed twice with ice-cold PBS and fixed in PBS containing 1% paraformaldehyde. Fluorescence was analyzed using flow cytometry.
After 5 or 15 min of incubation at room temperature, the cells were washed twice with ice-cold PBS and fixed in PBS containing 1% paraformaldehyde. The fluorescence was then analyzed by flow cytometry (FACScan, Becton Dickinson Imunocytometry Systems, San Jose, Calif., USA). For each sample 10,000 events were acquired. Data were analyzed and processed.

cMAGI cells = experiment: Competition between FITC-labelled AACs and RANTES; format: cell-based; settings: 2.5 mM RANTES
Method: Competition between FITC labelled AACs (1 mM) and RANTES (2.5 mM, Pepro Tech Inc., New Jersey, USA) was effected in 2×10^5 cMAGI cells. Following 30 min of incubation, cells were washed with ice-cold wash buffer and analysed by flow cytometry as described above.

PM1 cells = experiment: Inhibition of FITC-labeled AAC uptake by SDF-1α, flow cytometry; format: cell-based; settings: for MFI of FITC-AAC uptake: background MFI of 10; for inhibition of cell uptake by SDF-1α: PM1 cells
Method: Following 20 minutes at room temperature the cells were washed twice with PBS and analyzed by flow cytometry.
Following 30 minutes of incubation, cells were washed with ice-cold wash buffer and analyzed by flow cytometry as described above.

[1] = test system: U38, PM1, H9 cells and PBMC; experiment: Cellular uptake of AAC-FITC fluorescent probes, fluorescence microscopy; format: cell-based; settings: 0.5 μM, 10 minutes of incubation
Method: Images were obtained using a Zeiss Axiophot microscope.
Cellular uptake using AAC fluorescent probes—U38, PM1, H9 cells and PBMC(10^5) were incubated for 20 minutes at room temperature in 100 μl RPMI 1640 medium (Gibco-BRL, Life-Technologies, UK) including AAC-FITC derivatives as indicated at a final concentration of 0.5 μM. Cells were washed twice, resuspended in 100 μl medium and analyzed with a Zeiss Axiophot fluorescent microscope.

CCR5 = biological target: T2, CCR5 (Homo sapiens, UniProt P51681); settings: PHA stimulated peripheral blood lymphocytes; cited from earlier work
T2 construct: in PHA stimulated peripheral blood lymphocytes (PBL); host or cells: PHA stimulated peripheral blood lymphocytes (PBL)

CD4 = biological target: T3, CD4 (Homo sapiens, UniProt P01730); settings: PHA stimulated peripheral blood lymphocytes; cited from earlier work
T3 construct: in PHA stimulated peripheral blood lymphocytes (PBL); host or cells: PHA stimulated peripheral blood lymphocytes (PBL)

[2] = test system: lymphocytes, PBMC and neurons; settings: cited from earlier work
HIV-1IIIB wild type = experiment: Inhibition of HIV-1IIIB wild type in MT2 or cMAGI cells; format: cell-based; settings: HIV-1IIIB wt; mean and standard deviation of three separate experiments; read-out: EC50, Wild-type
Description: The cMAGI assay is based on the ability of HIV-1 TAT to transactivate the expression of an integrated β-galactosidase reporter gene driven by the HIV-LTR [Chackerian, B. et al., 1997. J Virol. 71: 3932–3939; Collins, K. B. et al., 2000. Nat. Med. 6: 475–479]. The β-galactosidase reporter has been modified to remain localized in the nucleus where it can be detected with the X-gal substrate as an intense nuclear stain within a few days of infection. The X-gal substrate used was 5-bromo-4-chloro-3-indoyl-beta-D-galactopyranoside. HIV1IIIB was propagated by subculture in MT2 as described previously [Litovchick (2001) Supra]. Aliquots of cell-free culture supernatants were used as viral inoculum. […] The cytopathic effects of the viral infection of MT2 cells were analyzed by microscopic assessment of syncytium formation. These latter data were obtained by analysis of duplicate samples by two independent observers. HIV-1 infection of cMAGI cells was determined by counting the number of HIV-1 infected cells (stained blue).

HIV-1 isolates = experiment: Inhibition of HIV-1 infection (cMAGI reporter cells, MT2 syncytium formation); format: cell-based; settings: up to 100 μM
Method: Aliquots of cell-free culture supernatants were used as viral inoculum. […] Cytotoxicity determinations were carried out in MT2 and H9 cells by trypan blue exclusion assay.
Viral inhibition was determined by incubating cMAGI HIV-1 reporter cells with 0.2–0.5 multiplicity of infection of HIV-1IIIB for 4 days at 37° C. in the presence or absence of various concentration of AACs, prior to counting the number of HIV-1 infected cells (stained blue). The cytopathic effects of the viral infection of MT2 cells were also analyzed by microscopic assessment of syncytium formation. These latter data were obtained by analysis of duplicate samples by two independent observers.

T1 sequence (P61073 whole entry): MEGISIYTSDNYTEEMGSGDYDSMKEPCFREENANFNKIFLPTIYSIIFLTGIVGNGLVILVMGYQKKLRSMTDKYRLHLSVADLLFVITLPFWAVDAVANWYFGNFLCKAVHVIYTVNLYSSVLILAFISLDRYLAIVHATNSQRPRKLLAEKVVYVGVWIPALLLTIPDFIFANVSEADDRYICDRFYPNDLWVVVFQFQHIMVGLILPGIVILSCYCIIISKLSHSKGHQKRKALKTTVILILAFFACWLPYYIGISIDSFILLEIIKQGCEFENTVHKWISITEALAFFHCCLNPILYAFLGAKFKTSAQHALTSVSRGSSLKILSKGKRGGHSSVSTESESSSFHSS
T2 sequence (P51681 whole entry): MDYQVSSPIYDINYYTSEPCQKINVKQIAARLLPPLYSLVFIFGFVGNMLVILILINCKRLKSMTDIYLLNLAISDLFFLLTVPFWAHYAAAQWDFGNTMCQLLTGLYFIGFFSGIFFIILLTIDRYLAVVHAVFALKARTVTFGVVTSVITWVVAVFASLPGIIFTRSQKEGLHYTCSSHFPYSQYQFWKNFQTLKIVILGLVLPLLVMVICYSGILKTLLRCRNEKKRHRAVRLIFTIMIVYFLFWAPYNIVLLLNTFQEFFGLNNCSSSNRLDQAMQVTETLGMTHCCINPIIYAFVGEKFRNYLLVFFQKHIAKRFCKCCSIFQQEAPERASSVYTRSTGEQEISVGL

| Compound | Kd (RRE IIB RNA) | IC50 (RRE IIB RNA) [nM] | Kd (TAR RNA) | IC50 (TAR RNA) [nM] | reduction of 12G5 mAb binding to the cells (CXCR4) [%] | inhibition of mAb 12G5 or SDF-1α binding to CXCR4, % of the NeoR6 activity (CXCR4) [%] | further results |
| --- | --- | --- | --- | --- | --- | --- | --- |
| CC(=O)O.N=C(N)NCCCC(N)C(=O)NCC1OC(OC2C(N)CC(N)C(O)C2O)C(N)C(O)C1O (centres unmarked) [NeamR1, argininamido-neamine conjugate] | 233 ± 4.5 nM | 342 ± 29.5 | > 500 nM | > 500 | 5 | – | competition with NeoR6-FITC uptake (in words) (MT-2 cells): did not compete |
| CC(=O)O.N=C(N)NCCCC(N)C(=O)NCC1OC(OC2C(NC(=O)C(N)CCCNC(=N)N)CC(NC(=O)C(N)CCCNC(=N)N)C(O)C2O)C(NC(=O)C(N)CCCNC(=N)N)C(O)C1O (centres unmarked) [NeamR4, Neamine tetra-arginine conjugate] | 55 nM and 54.7 nM | 119 ± 13.5 | 30 nM and 30.1 nM | 82.8 ± 7.7 | 60 | 70 | effect of RANTES on uptake of FITC derivative (cMAGI cells): did not affect uptake; MFI of FITC-AAC uptake (PM1 cells; 62.5 nM SDF-1α): 56; inhibition of cell uptake by SDF-1α (PM1 cells; 125 nM SDF-1α): about 50%; MFI of FITC-AAC uptake (PM1 cells; 125 nM SDF-1α): 52; MFI of FITC-AAC uptake (PM1 cells; 250 nM SDF-1α): 50; MFI of FITC-AAC uptake (PM1 cells; without SDF-1α): 96; folds less active / times weaker than NeoR6, TAR binding (TAR RNA; ratio of KD to that of NeoR6): 6; competition with RhdRev for TAR RNA binding (in words) (TAR RNA): efficiently competed; cellular uptake of FITC-labeled AAC by PM1 cells [1]: uptaken by PM1 cells; inhibition of NeoR6-FITC uptake, less affinity than NeoR6 (MT-2 cells): about 50% |
| CC(=O)O.N=C(N)NCCCC(N)C(=O)NCC1OC(OC2C(CO)OC(OC3C(O)C(N)CC(N)C3OC3OC(CNC(=O)C(N)CCCNC(=N)N)C(O)C(O)C3N)C2O)C(N)C(O)C1O (centres unmarked) [NeoR2, diargininamido-neomycin B conjugate] | 112 ± 3.7 nM | 208 ± 21.1 | > 500 nM | > 500 | 48 | 55 | inhibition of NeoR6-FITC uptake, less affinity than NeoR6 (MT-2 cells): about 50% |
| CC(=O)O.N=C(N)NCCCC(N)C(=O)NCC1OC(OC2C(CO)OC(OC3C(O)C(N)CC(N)C3OC3OC(CO)C(O)C(O)C3N)C2O)C(N)C(O)C1O (centres unmarked) [ParomR1, argininamido-paramomycin conjugate] | 254 ± 7.8 nM | 407 ± 41 | > 500 nM | > 500 | 16 | – | competition with NeoR6-FITC uptake (in words) (MT-2 cells): did not compete |
| CC(=O)O.N=C(N)NCCCC(N)C(=O)NCC1OC(OC2C(CO)OC(OC3C(O)C(NC(=O)C(N)CCCNC(=N)N)CC(NC(=O)C(N)CCCNC(=N)N)C3OC3OC(CO)C(O)C(O)C3NC(=O)C(N)CCCNC(=N)N)C2O)C(NC(=O)C(N)CCCNC(=N)N)C(O)C1O (centres unmarked) [ParomR5, pentaargininamido-paromomycin conjugate] | 96 nM and 95.9 nM | 149 ± 12.3 | 15 nM and 15.1 nM | 34.3 ± 5.7 | 81 | 90 | effect of RANTES on uptake of FITC derivative (cMAGI cells): did not affect uptake; times weaker than NeoR6, RRE IIB binding (RRE IIB RNA; ratio of KD to that of NeoR6): about 4; MFI of FITC-AAC uptake (PM1 cells; 62.5 nM SDF-1α): 83; inhibition of cell uptake by SDF-1α (PM1 cells; 125 nM SDF-1α): about 50%; MFI of FITC-AAC uptake (PM1 cells; 125 nM SDF-1α): 59; MFI of FITC-AAC uptake (PM1 cells; 250 nM SDF-1α): 53; MFI of FITC-AAC uptake (PM1 cells; without SDF-1α): 104; competition with RhdRev for TAR RNA binding (in words) (TAR RNA): efficiently competed; cellular uptake of FITC-labeled AAC by PM1 cells [1]: uptaken by PM1 cells; inhibition of NeoR6-FITC uptake, less efficient than NeoR6 (MT-2 cells; 40 fold excess of non-labeled AAC): about 50%; inhibition of NeoR6-FITC uptake, less affinity than NeoR6 (MT-2 cells): about 50% |
| NC(N)=NCCC[C@H](N)C(=O)NC[C@H]1O[C@H](O[C@H]2C(O)[C@@H](O[C@H]3O[C@H](CO)[C@@H](O)[C@H](NC(=O)[C@@H](N)CCCN=C(N)N)[C@H]3O)[C@H](NC(=O)[C@@H](N)CCCN=C(N)N)C[C@@H]2NC(=O)[C@@H](N)CCCN=C(N)N)[C@H](O)[C@@H](O)[C@@H]1O (some centres unmarked) [R4K] | – | – | – | – | – | – | inhibition of binding of 2D7, a mAb directed to CCR5 (CCR5): neither R3G nor R4K or NeoR6 inhibit the binding; inhibition of binding of anti CD4 antibody (Leu 3a) (CD4): neither R3G nor R4K or NeoR6 inhibit the binding; accumulation in cells [2]: accumulate in different cell types |
| Nc1ccn([C@H]2CC[C@@H](CO)O2)c(=O)n1 [ddC, Dideoxycytosine, reference compound] | – | – | – | – | – | – | EC50 (HIV-1IIIB wild type): 300 ± 100 nM |
| NC[C@H]1O[C@H](O[C@H]2[C@H](O)[C@@H](O)[C@H](N)C[C@@H]2N)[C@H](N)[C@@H](O)[C@@H]1O [neamine, reference compound] | – | – | – | – | – | – | inhibition of 12G5 mAb binding to CXCR4 (in words) (CXCR4): did not inhibit; antiviral activity (in words) (HIV-1 isolates): did not reveal antiviral activity |
| NC[C@@H]1O[C@H](O[C@H]2[C@@H](O)[C@H](O[C@@H]3[C@@H](O)[C@H](N)C[C@H](N)[C@H]3O[C@H]3O[C@H](CO)[C@@H](O)[C@H](O)[C@H]3N)O[C@@H]2CO)[C@H](N)[C@@H](O)[C@@H]1O [paromomycin, reference compound] | – | – | – | – | – | – | inhibition of 12G5 mAb binding to CXCR4 (in words) (CXCR4): did not inhibit; antiviral activity (in words) (HIV-1 isolates): did not reveal antiviral activity |
| argininamido-neomycin B conjugate [NeoR1] | 200 ± 5.9 nM | 353 ± 31.9 | > 500 nM | > 500 | 50 | 55 | competition with NeoR6-FITC uptake (in words) (MT-2 cells): did not compete |
| gentamicin | – | – | – | – | – | – | antiviral activity (in words) (HIV-1 isolates): did not reveal antiviral activity |
